Values after ≈ are worked out from the molar mass of the structure shown. Bridge positions count the residues as written; N and C are the ends. Square brackets hold non-standard residues; d marks the D form. Peptide text beside a SMILES is read from it. S5 = C=CCCC[C@](C)(N)C(=O)O
What was measured:
[1] = Hemolytic activity in human RBC assessed as hemolysis; format: toxicity, cell-based, Erythrocyte; conditions: red blood cells
Staphylococcus aureus [2] = experiment: Antibacterial activity against Staphylococcus aureus ATCC 25923 assessed as reduction in bacterial growth incubated for 24 hrs by serial dilution method; format: functional
Escherichia coli [3] = experiment: Antibacterial activity against Escherichia coli ATCC 25922 assessed as bacterial growth inhibition measured after 48 hrs by resazurin assay; format: functional
Enterococcus faecium [4] = experiment: Antibacterial activity against Enterococcus faecium ATCC 700221 assessed as reduction in bacterial cell growth by CLSI broth microdilution method; format: functional
Pseudomonas aeruginosa [5] = experiment: Antibacterial activity against Pseudomonas aeruginosa ATCC 27853 assessed as reduction in bacterial growth by broth microdilution method; format: functional
Staphylococcus aureus [6] = experiment: Antibacterial activity against Staphylococcus aureus ATCC 25923 assessed as reduction in bacterial growth incubated for 18 to 24 hrs by broth microdilution method; format: functional; conditions: time 18-24 hrs
Bacillus subtilis [7] = experiment: Antibacterial activity against Bacillus subtilis assessed as reduction in microbial growth; format: functional
Enterococcus faecalis = experiment: Antibacterial activity against Enterococcus faecalis assessed as reduction in microbial growth; format: functional
[8] = tested on: Staphylococcus epidermidis; experiment: Antibacterial activity against Staphylococcus epidermidis assessed as reduction in microbial growth; format: functional
Escherichia coli [9] = experiment: Antibacterial activity against Escherichia coli ATCC 25922 assessed as reduction in bacterial growth by broth microdilution method; format: functional
Pseudomonas aeruginosa [10] = experiment: Antibacterial activity against Pseudomonas aeruginosa ATCC 15442 assessed as growth inhibition; format: functional
Klebsiella pneumoniae = experiment: Antibacterial activity against Klebsiella pneumoniae; format: functional
Acinetobacter baumannii = experiment: Antibacterial activity against Acinetobacter baumannii assessed as bacterial growth inhibition; format: functional
[11] = Hemolytic activity in human RBC; format: toxicity, cell-based, Erythrocyte; conditions: red blood cells
Staphylococcus aureus [12] = experiment: Antibacterial activity against Staphylococcus aureus ATCC 29213 assessed as bacterial growth inhibition measured after 18 hrs by CLSI protocol based two-fold serial microdilution method; format: functional
Escherichia coli [13] = experiment: Antibacterial activity against Escherichia coli ATCC 25922 assessed as reduction in bacterial growth; format: functional
Enterococcus faecium [14] = experiment: Antibacterial activity against Enterococcus faecium ATCC 27270; format: functional
Pseudomonas aeruginosa [15] = experiment: Antibacterial activity against Pseudomonas aeruginosa assessed as reduction in bacterial growth by broth microdilution method; format: functional
Staphylococcus aureus [16] = experiment: Antibacterial activity against Staphylococcus aureus; format: functional
Escherichia coli [17] = experiment: Antibacterial activity against Escherichia coli; format: functional
Staphylococcus aureus [18] = experiment: Antibacterial activity against Staphylococcus aureus ATCC 29213 assessed as bacterial growth inhibition measured for 18 hrs by CLSI-protocol based Mueller-Hinton Broth micro-dilution assay; format: functional
Staphylococcus aureus [19] = experiment: Antibacterial activity against methicillin-resistant Staphylococcus aureus ATCC BAA1720 assessed as bacterial growth inhibition measured for 18 hrs by CLSI-protocol based Mueller-Hinton Broth micro-dilution assay; format: functional
Bacillus subtilis [20] = experiment: Antibacterial activity against Bacillus subtilis 168 assessed as bacterial growth inhibition measured for 18 hrs by CLSI-protocol based Mueller-Hinton Broth micro-dilution assay; format: functional
Escherichia coli [21] = experiment: Antibacterial activity against Escherichia coli K12 assessed as bacterial growth inhibition measured for 18 hrs by CLSI-protocol based Mueller-Hinton Broth micro-dilution assay; format: functional
Escherichia coli [22] = experiment: Antibacterial activity against Escherichia coli MG1655 assessed as bacterial growth inhibition measured for 18 hrs by CLSI-protocol based Mueller-Hinton Broth micro-dilution assay; format: functional
Pseudomonas aeruginosa [23] = experiment: Antibacterial activity against Pseudomonas aeruginosa PAO1 assessed as bacterial growth inhibition measured for 18 hrs by CLSI-protocol based Mueller-Hinton Broth micro-dilution assay; format: functional
Pseudomonas aeruginosa [24] = experiment: Antibacterial activity against Pseudomonas aeruginosa ATCC 27853 assessed as bacterial growth inhibition measured for 18 hrs by CLSI-protocol based Mueller-Hinton Broth micro-dilution assay; format: functional
Salmonella typhimurium = experiment: Antibacterial activity against Salmonella enterica subsp. enterica serovar Typhimurium LT2 assessed as bacterial growth inhibition measured for 18 hrs by CLSI-protocol based Mueller-Hinton Broth micro-dilution assay; format: functional
Erythrocyte = experiment: Hemolytic activity in sheep RBC incubated for 30 mins; format: toxicity, cell-based, Ovis aries; conditions: 0.5 h
Escherichia coli [25] = experiment: Antibacterial activity against Escherichia coli DH5alpha assessed as bacterial growth inhibition; format: functional
Bacillus subtilis [26] = experiment: Antibacterial activity against Bacillus subtilis ATCC 23857 assessed as reduction in bacterial cell growth incubated for 24 hrs by broth micro-dilution analysis; format: functional

CC[C@H](C)[C@H](NC(=O)[C@H](CCCNC(=N)N)NC(=O)[C@H](CCCCN)NC(=O)[C@H](CC(C)C)NC(=O)[C@H](CC(C)C)NC(=O)CN)C(=O)N[C@@H](CCCCN)C(=O)N[C@@H](CCCCN)C(=O)N[C@@H](CC(C)C)C(=O)N[C@@H](CC(C)C)C(N)=O (H-GLLKRIKKLL-NH2)
HC50 [1]: > 312 µM
MIC (Staphylococcus aureus [2]): 4.2 µM (≈ 4.96 µg/mL)
MIC (Escherichia coli [3]): 8.5 µM (≈ 10 µg/mL)
MIC (Enterococcus faecium [4]): 66.3 µM (≈ 78.3 µg/mL)
MIC (Pseudomonas aeruginosa [5]): 28.4 µM (≈ 33.5 µg/mL)

CC[C@H](C)[C@H](NC(=O)[C@H](CCCNC(=N)N)NC(=O)[C@H](CCCCN)NC(=O)[C@H](CC(C)C)NC(=O)[C@H](CC(C)C)NC(=O)CN)C(=O)N[C@@H](CCCCN)C(=O)N[C@H](C(=O)N[C@@H](CC(C)C)C(=O)N[C@@H](C)C(N)=O)[C@@H](C)O (H-GLLKRIKTLA-NH2)
MIC (Staphylococcus aureus [6]): 43.2 µM (≈ 48 µg/mL)
MIC (Bacillus subtilis [7]): 32 µM
MIC (Enterococcus faecalis): ≥ 512 µM
MIC [8]: 64 µM
MIC (Escherichia coli [9]): 43.2 µM (≈ 48 µg/mL)
MIC (Pseudomonas aeruginosa [10]): 64 µM (≈ 71.1 µg/mL)
MIC (Klebsiella pneumoniae): 256 µM (≈ 285 µg/mL)
MIC (Acinetobacter baumannii): ≥ 512 µM
HC50 [11]: ≥ 512 µM

CC[C@H](C)[C@H](NC(=O)[C@H](Cc1c[nH]c2ccccc12)NC(=O)[C@H](CCCCN)NC(=O)[C@H](CC(C)C)NC(=O)[C@H](CC(C)C)NC(=O)CN)C(=O)N[C@@H](CCCCN)C(=O)N[C@H](C(=O)N[C@@H](CC(C)C)C(=O)N[C@@H](CC(C)C)C(N)=O)[C@@H](C)O (H-GLLKWIKTLL-NH2)
HC50 [1]: 14 µM
MIC (Staphylococcus aureus [12]): 62.2 µM (≈ 73.6 µg/mL)
MIC (Escherichia coli [13]): 62.2 µM (≈ 73.6 µg/mL)
MIC (Enterococcus faecium [14]): 9.5 µM (≈ 11.2 µg/mL)
MIC (Pseudomonas aeruginosa [15]): 28.4 µM (≈ 33.6 µg/mL)
MIC (Staphylococcus aureus [16]): 19.6 µM (≈ 23.2 µg/mL)
MIC (Escherichia coli [17]): 14.2 µM (≈ 16.8 µg/mL)

CC[C@H](C)[C@@H]1NC(=O)[C@@](C)(NC(=O)[C@H](CCCCN)NC(=O)[C@H](CC(C)C)NC(=O)[C@H](CC(C)C)NC(=O)CN)CCC/C=C\CCC[C@@](C)(C(=O)N[C@@H](CC(C)C)C(N)=O)NC(=O)[C@H]([C@@H](C)O)NC(=O)[C@H](CCCCN)NC1=O (H-GLLK[S5]IKT[S5]L-NH2; staple (Z) 5-9)
MIC (Staphylococcus aureus [18]): 4 µM (≈ 4.54 µg/mL)
MIC (Staphylococcus aureus [19]): 4 µM (≈ 4.54 µg/mL)
MIC (Bacillus subtilis [20]): 4 µM (≈ 4.54 µg/mL)
MIC (Escherichia coli [21]): 8 µM (≈ 9.08 µg/mL)
MIC (Escherichia coli [22]): 32 µM (≈ 36.3 µg/mL)
MIC (Pseudomonas aeruginosa [23]): 16 µM (≈ 18.2 µg/mL)
MIC (Pseudomonas aeruginosa [24]): 32 µM (≈ 36.3 µg/mL)
MIC (Salmonella typhimurium): 32 µM (≈ 36.3 µg/mL)
HC10 (Erythrocyte): 8 µM

CC[C@H](C)[C@H](NC(=O)[C@H](CCCNC(=N)N)NC(=O)[C@H](CCCCN)NC(=O)[C@H](CC(C)C)NC(=O)[C@H](CC(C)C)NC(=O)CN)C(=O)N[C@@H](CCCCN)C(=O)N[C@H](C(=O)N[C@@H](CC(C)C)C(=O)N[C@@H](CC(C)C)C(N)=O)[C@@H](C)O [ANOPLIN]
MIC (Escherichia coli [25]): 86.7 µM (≈ 100 µg/mL)
MIC (Bacillus subtilis [26]): 43.4 µM (≈ 50.1 µg/mL)

— ChEMBL document CHEMBL5608163, “Structure modification of anoplin for fighting resistant bacteria” (Eur J Med Chem, 2024)
